We go through 35 compounds from ChEMBL document CHEMBL3868607, “Development of a novel series of non-natural triaryl agonists and antagonists of the Pseudomonas aeruginosa LasR quorum sensing receptor” (Bioorg Med Chem, 2017).

Activity calls are given as the source filed them. No cut-off for these calls is given here.

Test [1] relates to Pseudomonas aeruginosa. Put plainly: Agonist activity at Pseudomonas aeruginosa GFP-fused LasR expressed in Escherichia coli BL21(DE3) at 50 uM after 4 to 6 hrs by fluorescence assay relative to 3-oxo-C12 HSL.
Test [2] can be described thus: Agonist activity at Pseudomonas aeruginosa GFP-fused LasR expressed in Escherichia coli BL21(DE3) after 4 to 6 hrs by fluorescence assay.
Test [3] in a line: Antagonist activity at Pseudomonas aeruginosa GFP-fused LasR expressed in Escherichia coli BL21(DE3) after 4 to 6 hrs by fluorescence assay.
Test [4] relates to Pseudomonas aeruginosa. Put plainly: Antagonist activity at Pseudomonas aeruginosa GFP-fused LasR expressed in Escherichia coli BL21(DE3) at 50 uM after 4 to 6 hrs by fluorescence assay relative to (S)-2-(4-bromophenyl)-N-(2-oxotetrahydrofuran-3-yl) acetamide.
Test [5] deals with Pseudomonas aeruginosa. Put plainly: Irreversible inhibition of Pseudomonas aeruginosa GFP-fused LasR expressed in Escherichia coli BL21(DE3) at 50 uM after 4 to 6 hrs by fluorescence assay.
A short description of test [6]: Antagonist activity at Pseudomonas aeruginosa LasR expressed in Escherichia coli DH5alpha after 4 to 6 hrs by beta-galactosidase reporter gene assay.

Compound `O=C(Cc1cc(Br)cc(Br)c1OC(=O)c1ccccc1Br)Nc1ccccc1[N+](=O)[O-]` registered an Emax in the test on Pseudomonas aeruginosa [1] of 82%. In addition, in test [2], a half-maximal response (EC50) required 271 nM.
Regarding `O=C(NCc1cc(Br)cc(Br)c1OC(=O)c1ccccc1Cl)c1cccnc1`, the IC50 in test [3] is greater than 100000 nM. The compound further had an Imax in the test on Pseudomonas aeruginosa [4] of 0%. Moreover, the Emax with Pseudomonas aeruginosa [1] was 31%. In test [2], this compound showed a 50% effective concentration (EC50) of 0.488 nM.
For `O=C(Cc1cc(Br)cc(Br)c1OC(=O)c1ccccc1I)Nc1ccccc1[N+](=O)[O-]`, the maximal effect (Emax) in the test on Pseudomonas aeruginosa [1] turned out to be 50%. In test [2], the 50% effective concentration (EC50) turned out to be 1580 nM.
Consider `O=C(Cc1cc(Br)cc(Br)c1OC(=O)CCCN1C(=O)C=CC1=O)N[C@H]1CCOC1=O`, for which the IC50 in test [3] was greater than 100000 nM. Besides, the inhibition result with Pseudomonas aeruginosa [5] was “Active”. Besides, the Imax in the test with Pseudomonas aeruginosa [4] stood at 109%.
Turning to `O=C(Cc1cc(Br)cc(Br)c1OC(=O)c1ccccc1)Nc1ccccc1[N+](=O)[O-]`, the Emax in the test with Pseudomonas aeruginosa [1] was determined as 0%. The EC50 in test [2] was less than 50000 nM.
For `Cc1cccc(C(=O)Oc2c(Br)cc(Br)cc2CC(=O)Nc2ccccc2[N+](=O)[O-])c1`, in that order: 24% and less than 50000 nM.
In the test with Pseudomonas aeruginosa [1], `O=C(Cc1cc(Br)cc(Br)c1OCc1c(Cl)cccc1Cl)Nc1ccccc1[N+](=O)[O-]` had an Emax of 56%. The compound further returned an EC50 in test [2] of 161 nM.
In the test on Pseudomonas aeruginosa [1], `O=C(Cc1cc(Br)cc(Br)c1OC(=O)c1ccccc1F)Nc1ccccc1[N+](=O)[O-]` yielded an Emax of 76%. Also, the midpoint of the response in test [2], the EC50, lay at 1290 nM.
For the compound `O=C(Cc1cc(Br)cc(Br)c1OC(=O)c1cccc(Cl)c1)Nc1ccccc1[N+](=O)[O-]`, the Emax in the test with Pseudomonas aeruginosa [1] amounted to 0%. This compound yielded an EC50 in test [2] of less than 50000 nM.
For `O=C(Cc1cc(Br)cc(Br)c1OC(=O)c1ccccc1Cl)Nc1cccc([N+](=O)[O-])c1`, in that order: 0% and less than 50000 nM.
In the test with Pseudomonas aeruginosa [1], `O=C(Cc1cc(Br)cc(Br)c1OC(=O)c1ccc(Cl)cc1)Nc1ccccc1[N+](=O)[O-]` gave an Emax of 0%. The compound also gave a 50% effective concentration (EC50) in test [2] of less than 50000 nM.
Compound `O=C(Cc1cc(Br)cc(Br)c1OC(=O)c1ccccc1Cl)Nc1ccncn1` returned a half-inhibitory concentration (IC50) in test [3] greater than 100000 nM. In addition, the Imax in the test on Pseudomonas aeruginosa [4] worked out at 0%. Further, the maximum response (Emax) in the test with Pseudomonas aeruginosa [1] turned out to be 92%. Besides, in test [2], the half-maximal effective concentration (EC50) was 601 nM.
In the case of `O=C(Cc1ccc(Br)cc1)N[C@H]1CCOC1=O`, the IC50 in test [6] turned out to be 26300 nM.
The compound `CCCCCCCCCC(=O)CC(=O)N[C@H]1CCOC1=O` registered an EC50 in test [2] of 64700 to 72900 nM.
`O=C(Cc1cc(Br)cc(Br)c1OC(=O)c1ccccc1Cl)Nc1ccccc1[N+](=O)[O-]` gave an Emax with Pseudomonas aeruginosa [1] of 105%. Further, a half-maximal effect in test [2] (EC50) was put at 372 nM.
On the same counts, the results for `COc1ccccc1C(=O)Oc1c(Br)cc(Br)cc1CC(=O)Nc1ccccc1[N+](=O)[O-]` are 45% and 246 nM.
With `O=C(Cc1cc(Br)cc(Br)c1OC(=O)c1ccccc1Cl)Nc1ccccn1`, inhibition in test [3] was half-maximal at 42000 nM (IC50). Further, the Imax with Pseudomonas aeruginosa [4] came out at 122%. The Emax in the test on Pseudomonas aeruginosa [1] was 0%. Further, the EC50 in test [2] is less than 50000 nM.
`Cc1ccc(C(=O)Oc2c(Br)cc(Br)cc2CC(=O)Nc2ccccc2[N+](=O)[O-])cc1` displayed an Emax with Pseudomonas aeruginosa [1] of 33%. In test [2], this compound came in with an EC50 of less than 50000 nM.
In test [3], `O=C(NCc1cc(Br)cc(Br)c1OC(=O)c1ccccc1Cl)c1ccncn1` displayed an IC50 greater than 100000 nM. In addition, the Imax in the test on Pseudomonas aeruginosa [4] turned out to be 0%. Besides, the maximal response (Emax) in the test with Pseudomonas aeruginosa [1] turned out to be 90%. Further, in test [2], the concentration giving a half-maximal response (EC50) is 1630 nM.
In turn, `O=C(NCc1cc(Br)cc(Br)c1OC(=O)c1ccccc1Cl)c1ccccn1` returned a half-maximal inhibitory concentration (IC50) in test [3] of 79300 nM. Also, the Imax in the test with Pseudomonas aeruginosa [4] was 105%. The maximal response (Emax) in the test with Pseudomonas aeruginosa [1] turned out to be 0%. In test [2], this compound came in with a 50% effective concentration (EC50) greater than 50000 nM.
In the test with Pseudomonas aeruginosa [1], `O=C(Cc1cc(Br)cc(Br)c1OC(=O)c1ccccc1Cl)Nc1ccc([N+](=O)[O-])cc1` came in with an Emax of 0%. Also, in test [2], the EC50 is less than 50000 nM.
In turn, `O=C(Cc1cc(Br)cc(Br)c1OC(=O)c1ccc(F)cc1)Nc1ccccc1[N+](=O)[O-]` came in with an Emax in the test on Pseudomonas aeruginosa [1] of 39%. In test [2], this compound gave an EC50 of less than 50000 nM.
In the test with Pseudomonas aeruginosa [1], `O=C(Cc1cc(Br)cc(Br)c1OC(=O)c1ccccc1[N+](=O)[O-])Nc1ccccc1[N+](=O)[O-]` came in with a maximal response (Emax) of 37%. This compound showed a 50% effective concentration (EC50) in test [2] of 489 nM.
On the same counts, the results for `O=C(Cc1cc(Br)cc(Br)c1OC(=O)c1ccccc1Cl)Nc1cc(F)c(F)cc1[N+](=O)[O-]` are 89% and 335 nM.
As for `O=C(Oc1c(Br)cc(Br)cc1CNC(=O)c1cccc(F)c1F)c1ccccc1Cl`, in test [3], the IC50 was found to be 64500 nM. Also, the Imax with Pseudomonas aeruginosa [4] is 80%. The compound further registered an Emax in the test with Pseudomonas aeruginosa [1] of 0%. Moreover, the concentration for a half-maximal effect (EC50) in test [2] is greater than 50000 nM.
Take `O=C(Cc1cc(Br)cc(Br)c1OC(=O)c1ccccc1Cl)Nc1cccc(F)c1F`: in test [3], the IC50 was greater than 100000 nM. Moreover, in the test on Pseudomonas aeruginosa [4], the Imax stood at 0%. In the test with Pseudomonas aeruginosa [1], this compound yielded an Emax of 116%. The compound also registered an EC50 in test [2] of 45.6 nM.
`O=C(Cc1cc(Br)cc(Br)c1OC(=O)c1ccccc1Cl)N[C@H]1CCOC1=O`: in the test on Pseudomonas aeruginosa [1], the maximal effect (Emax) worked out at 105%. This compound yielded a concentration giving a half-maximal response (EC50) in test [2] of 0.896 nM.
In test [3], `O=C(CCCN1C(=O)C=CC1=O)Oc1c(Br)cc(Br)cc1CNC(=O)c1ccccn1` registered an IC50 of 76800 nM. Also, in the test with Pseudomonas aeruginosa [5], the inhibition entry is “Active”. In addition, in the test with Pseudomonas aeruginosa [4], the Imax is 116%.
On the same counts, the results for `O=C(Cc1cc(Br)cc(Br)c1OC(=O)CCN1C(=O)C=CC1=O)N[C@H]1CCOC1=O` are 23800 nM, “Active” and 115%.
For the compound `Cc1ccccc1C(=O)Oc1c(Br)cc(Br)cc1CC(=O)Nc1ccccc1[N+](=O)[O-]`, the Emax in the test with Pseudomonas aeruginosa [1] is 85%. This compound yielded a concentration giving a half-maximal response (EC50) in test [2] of 757 nM.
For `O=C(Cc1cc(Br)cc(Br)c1OC(=O)c1cccc(Br)c1)Nc1ccccc1[N+](=O)[O-]`, in that order: 44% and less than 50000 nM.
On the same counts, the results for `O=C(Cc1cc(Br)cc(Br)c1OC(=O)c1ccc(F)cc1Br)Nc1ccccc1[N+](=O)[O-]` are 64% and 436 nM.
For `O=C(Cc1cc(Br)cc(Br)c1OC(=O)c1c(Cl)cccc1Cl)Nc1ccccc1[N+](=O)[O-]`, in that order: 95% and 313 nM.
Take `O=C(Cc1cc(Br)cc(Br)c1OC(=O)c1ccc(Br)cc1)Nc1ccccc1[N+](=O)[O-]`: the Emax in the test on Pseudomonas aeruginosa [1] worked out at 35%. The EC50 in test [2] is less than 50000 nM.
On the same counts, the results for `O=C(Cc1cc(Br)cc(Br)c1OC(=O)c1ccccc1Cl)Nc1ccncc1[N+](=O)[O-]` are 112% and 446 nM.

Usually Emax stands for the size of the effect at its maximum, as opposed to the concentration needed. Usually EC50 stands for the concentration at which the effect is half-maximal. In general, IC50 refers to the point on the concentration scale where inhibition reaches its midpoint.
